# Reference: ChEMBL document CHEMBL1201862, “PubChem BioAssay data set” (2004)
#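 Method: 48-hour compound exposure of cells in 96-well plates, five concentrations, linear interpolation of endpoints. Abbreviation: GI50, concentration required for 50% inhibition of growth.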 Active and inactive are the calls of the source. Rule as the data show it: active = GI50 up to about 1.1 µM and inactive = higher.
# Legend:
# Test in all cases: NCI anticancer screen, dose series, 48 h
# [1] = test system: A549
# [2] = test system: UACC-62
# [3] = test system: LOX IMVI
# [4] = test system: MCF7
# [5] = test system: 786-0
# [6] = test system: NCI-H23
# [7] = test system: SK-MEL-2
# [8] = test system: OVCAR-5
# [9] = test system: HT-29
# [10] = test system: M14
# [11] = test system: SF-295
# [12] = test system: SR
# [13] = test system: OVCAR-3
# [14] = test system: SK-MEL-28
# [15] = test system: OVCAR-8
# [16] = test system: HOP-62
# [17] = test system: SW-620
# [18] = test system: OVCAR-4
SMILES,GI50 [1],GI50 [2],GI50 [3],GI50 [4],GI50 [5],GI50 [6],GI50 [7],GI50 [8],GI50 [9],GI50 [10],GI50 [11],GI50 [12],GI50 [13],GI50 [14],GI50 [15],GI50 [16],GI50 [17],GI50 [18]
Clc1ccc2c(c1)N(CCCN1CCCC13CCCCC3)c1ccccc1S2,17.3 µM (inactive),16.6 µM (inactive),12.4 µM (inactive),14.3 µM (inactive),10.8 µM (inactive),16.1 µM (inactive),9.77 µM (inactive),17.3 µM (inactive),4.33 µM (inactive),13.6 µM (inactive),15.6 µM (inactive),4.39 µM (inactive),14.1 µM (inactive),14.9 µM (inactive),16.5 µM (inactive),16.3 µM (inactive),14.9 µM (inactive),15.4 µM (inactive)
Cc1cnc2sn(-c3ccc([N+](=O)[O-])cc3)c(=O)c2c1,64.3 µM (inactive),64.7 µM (inactive),72.6 µM (inactive),> 100 µM (inactive),56.8 µM (inactive),42.9 µM (inactive),45.7 µM (inactive),> 100 µM (inactive),> 100 µM (inactive),> 100 µM (inactive),45.3 µM (inactive),> 100 µM (inactive),36.1 µM (inactive),> 100 µM (inactive),43 µM (inactive),14.9 µM (inactive),> 100 µM (inactive),94.8 µM (inactive)
CC/C(Cl)=N\OC(=O)Nc1ccc(C#N)cc1,18.2 µM (inactive),15 µM (inactive),4.47 µM (inactive),15.1 µM (inactive),11.2 µM (inactive),17.2 µM (inactive),15.9 µM (inactive),15.9 µM (inactive),18.6 µM (inactive),12.3 µM (inactive),18.7 µM (inactive),3.13 µM (inactive),18.5 µM (inactive),18 µM (inactive),16.9 µM (inactive),17.2 µM (inactive),3.28 µM (inactive),8.09 µM (inactive)
NCCNCC(O)CO (stereo not given),> 100 µM (inactive),> 100 µM (inactive),> 100 µM (inactive),> 100 µM (inactive),> 100 µM (inactive),> 100 µM (inactive),> 100 µM (inactive),> 100 µM (inactive),> 100 µM (inactive),> 100 µM (inactive),> 100 µM (inactive),> 100 µM (inactive),> 100 µM (inactive),> 100 µM (inactive),> 100 µM (inactive),> 100 µM (inactive),> 100 µM (inactive),> 100 µM (inactive)
Cc1cccc(/N=N/C(=N\NC(=O)c2cc(Cl)ccc2O)c2ccc(N(CCC#N)CCC#N)cc2C)c1,26.5 µM (inactive),24 µM (inactive),31 µM (inactive),32.2 µM (inactive),38.5 µM (inactive),32.7 µM (inactive),29 µM (inactive),64.9 µM (inactive),28.3 µM (inactive),45.5 µM (inactive),40.3 µM (inactive),22.8 µM (inactive),18.5 µM (inactive),42.9 µM (inactive),31.3 µM (inactive),28.2 µM (inactive),46.7 µM (inactive),22.1 µM (inactive)
Br/C(=N\N=c1/nn[nH][nH]1)c1ccncc1,> 100 µM (inactive),> 100 µM (inactive),> 100 µM (inactive),> 100 µM (inactive),> 100 µM (inactive),> 100 µM (inactive),> 100 µM (inactive),> 100 µM (inactive),> 100 µM (inactive),> 100 µM (inactive),> 100 µM (inactive),> 100 µM (inactive),> 100 µM (inactive),> 100 µM (inactive),> 100 µM (inactive),> 100 µM (inactive),> 100 µM (inactive),> 100 µM (inactive)
c1ccc2c(c1)nc1n2CCCn2ccnc2-1,> 100 µM (inactive),> 100 µM (inactive),> 100 µM (inactive),> 100 µM (inactive),> 100 µM (inactive),> 100 µM (inactive),> 100 µM (inactive),> 100 µM (inactive),> 100 µM (inactive),> 100 µM (inactive),> 100 µM (inactive),> 100 µM (inactive),> 100 µM (inactive),> 100 µM (inactive),67.5 µM (inactive),> 100 µM (inactive),> 100 µM (inactive),> 100 µM (inactive)
O=C(O)c1ccccc1CC1Cc2ccccc2C1,> 100 µM (inactive),> 100 µM (inactive),> 100 µM (inactive),> 100 µM (inactive),> 100 µM (inactive),> 100 µM (inactive),> 100 µM (inactive),> 100 µM (inactive),> 100 µM (inactive),> 100 µM (inactive),> 100 µM (inactive),> 100 µM (inactive),> 100 µM (inactive),> 100 µM (inactive),> 100 µM (inactive),> 100 µM (inactive),> 100 µM (inactive),> 100 µM (inactive)
O=C1CC(Cl)c2c1csc2Br (stereo not given),19 µM (inactive),15.3 µM (inactive),14.1 µM (inactive),6.25 µM (inactive),7.91 µM (inactive),15.3 µM (inactive),15.1 µM (inactive),18.2 µM (inactive),21.7 µM (inactive),13.9 µM (inactive),23.7 µM (inactive),4.56 µM (inactive),16.3 µM (inactive),17.8 µM (inactive),16.3 µM (inactive),14.5 µM (inactive),3.48 µM (inactive),25.9 µM (inactive)
COC1/C=C\OC2(C)Oc3c(C)c(O)c4c(O)c(c(/C=N\OCCCc5ccccc5)c(O)c4c3C2=O)NC(=O)/C(C)=C\C=C/C(C)C(O)C(C)C(O)C(C)C(OC(C)=O)C1C (stereo not given),3.83 µM (inactive),2.79 µM (inactive),3.33 µM (inactive),1.17 µM (inactive),3.24 µM (inactive),3.21 µM (inactive),2.18 µM (inactive),6.85 µM (inactive),3.59 µM (inactive),2.71 µM (inactive),4.72 µM (inactive),2.81 µM (inactive),3.07 µM (inactive),2.06 µM (inactive),4.9 µM (inactive),2.59 µM (inactive),4.36 µM (inactive),3.08 µM (inactive)
COc1ccc2nc(N/N=C/C(C)=N/Nc3cc(C)c4cc(OC)ccc4n3)cc(C)c2c1,19.7 µM (inactive),30.8 µM (inactive),22.6 µM (inactive),14.3 µM (inactive),14 µM (inactive),23.1 µM (inactive),> 68.1 µM (inactive),27.4 µM (inactive),12.7 µM (inactive),39.1 µM (inactive),25.1 µM (inactive),5.11 µM (inactive),26.5 µM (inactive),35.2 µM (inactive),19.1 µM (inactive),28.6 µM (inactive),17 µM (inactive),18.5 µM (inactive)
CCOC(=O)N1CCN(c2ccc3ccc(N)nc3n2)CC1,> 100 µM (inactive),> 100 µM (inactive),> 100 µM (inactive),> 100 µM (inactive),> 100 µM (inactive),> 100 µM (inactive),> 100 µM (inactive),> 100 µM (inactive),80.2 µM (inactive),> 100 µM (inactive),> 100 µM (inactive),> 100 µM (inactive),> 100 µM (inactive),> 100 µM (inactive),> 100 µM (inactive),> 100 µM (inactive),> 100 µM (inactive),> 100 µM (inactive)
N#CC1=C(N)OC(c2ccc([N+](=O)[O-])cc2)C1(C#N)C#N (stereo not given),24.4 µM (inactive),8.71 µM (inactive),8.49 µM (inactive),15.6 µM (inactive),9.66 µM (inactive),15.3 µM (inactive),14.6 µM (inactive),18.7 µM (inactive),9.14 µM (inactive),16.7 µM (inactive),33.7 µM (inactive),3.97 µM (inactive),> 10 µM (inactive),9.4 µM (inactive),17.5 µM (inactive),20.7 µM (inactive),13.2 µM (inactive),17.8 µM (inactive)
CCOC(=O)NC(N(C)C(C(C)C)P(=O)(OCC)OCC)(C(F)(F)F)C(F)(F)F (stereo not given),> 100 µM (inactive),> 100 µM (inactive),> 100 µM (inactive),> 100 µM (inactive),> 100 µM (inactive),> 100 µM (inactive),> 100 µM (inactive),> 100 µM (inactive),> 100 µM (inactive),> 100 µM (inactive),> 100 µM (inactive),> 100 µM (inactive),> 100 µM (inactive),> 100 µM (inactive),> 100 µM (inactive),> 100 µM (inactive),4.68 µM (inactive),> 100 µM (inactive)
O=C(CCl)Nc1cc(Cl)c(Cl)cc1Cl,2.35 µM (inactive),1.93 µM (inactive),1.56 µM (inactive),2.07 µM (inactive),1.51 µM (inactive),1.7 µM (inactive),1.64 µM (inactive),2.12 µM (inactive),2 µM (inactive),1.48 µM (inactive),5.26 µM (inactive),0.644 µM (active),1.76 µM (inactive),2.32 µM (inactive),1.73 µM (inactive),2.15 µM (inactive),2.58 µM (inactive),2.27 µM (inactive)
